Source: PMC9400670, “Establishing the selective phospholipid membrane coordination, permeation and lysis properties for a series of ‘druggable’ supramolecular self-associating antimicrobial amphiphiles” (Chemical Science, 2022)

Legend:
[1] = design: method as in PMID 29568426; conditions: surface tension; 19 : 1 H2O : EtOH solution at 298 K; unit printed only in Figs S37-S40; cited from earlier work
[2] = tested on: phospholipid vesicles (PC, PG, PE-PG mix, E. coli total, E. coli polar); experiment: Vesicle membrane binding assay (FP), comparison across the five vesicle types; conditions: SSA 0.15 mM, in words
From the text: For intrinsically fluorescent SSAs 5, 6 and 8–12, FP titration experiments enabled the observation of SSA: phospholipid vesicle interactions. Here, an increase in FP value indicates an increase in the apparent size of the SSA as it interacts with the phospholipid vesicle.
The results of these studies have been summarised for convenience in Table 3 however, specific SSA: phospholipid vesicle interactions are also exemplified within Fig. 8. […] Here phospholipid vesicle selectivity appears to be driven by the presence of a methyl substituent appended from the benzothiazole unit, in addition to a urea-methyl/ethyl spacer-anionic functionality. Interesting the presence of the thiourea group, increasing SSA […] and increasing hydrogen bond donor acidity, while increasing the levels of vesicle interaction overall, decreased any specific SSA selectivity. […]
Fluorescence polarisation: Lipid films were resuspended in Buffer (150 mM KCl, 10 mM HEPES, pH 7.4, 2 mM EGTA) and subjected to 9 freeze-thaw cycles in liquid nitrogen and extruded 20 times through a 200 nm polycarbonate membrane. Black bottom 96-well plates were prepared by serially diluting desired vesicle solution across the plate, the appropriate SSA solution (100 µL, 0.15 mM) was added to each well to give a total well volume of 200 µL. Fluorescent SSA solutions were set to a FP value of 100 mP. Data were acquired in endpoint mode. […]
1H NMR CPMG: 1H NMR CPMG3,4 spectra were obtained with a Bruker Avance III […] spectrometer equipped with a TCIP cryoprobe at 298 K. Samples were supplemented with 5 % D 2O and 0.02 mM 4,4-dimethyl4-silapentane-1-sulfonic acid (DSS). […]
The P1 pulses were 9 µs at a power of 7.9 W. Presaturation was applied between acquisitions for 100 ms at a power level of 280 mW and acquisition was carried out of 85 2 µs. Water […]
180 o pulses of 1 ms. Repetition times were chosen to achieve suitable water suppression with the presat and watergate sequences used in 95 % H2O solution. The length of the CPMG element was chosen to achieve good differentiation between unbound and strongly bound ligands. Data was collected with 16,384 points and a spectral width of 16.0242 ppm, receiver gain was set to 128, with 512 scans, 8 dummy scans and an acquisition time of 0.85 s. Data was processed using MestreNova software. All spectra were automatically phased, baselined corrected using a polynomial function and calibrated to the centre of the DSS peak.
Fitting of 1H NMR CPMG data: The data was fit to Michaelis Menten and Hill plot models and compared through R2 analysis using Origin 2022 software,5 growth/sigmoidal category, Hill/MichaelisMenten function, Levenberg Marquardt iteration algorithm. Vmax fixed to 100 % as this was the greatest proportion of SSA that could be coordinated to the nanodiscs. […]

SMILES	CMC [1]	SSA: phospholipid vesicle interaction / selectivity (FP titration) [2]
O=C(NCS(=O)(=O)O)Nc1ccccc1-c1nc2ccccc2s1 [SSA 5]	9.5 (ref. [38]) mM	–
Cc1ccc2nc(-c3ccc(NC(=S)NCS(=O)(=O)O)cc3)sc2c1 [SSA 12]	–	strong interaction with all phospholipid vesicles tested
O=C(NCS(=O)(=O)O)Nc1ccc(-c2nc3ccccc3s2)cc1 [SSA 8]	–	little selectivity for different phospholipid membranes
Cc1ccc2nc(-c3ccc(NC(=O)NCS(=O)(=O)O)cc3)sc2c1 [SSA 6]	0.5 (ref. [38]) mM	limited selectivity with a preference for PC, PG and E. coli polar over the E. coli total and PG : PE mix
Cc1ccc2nc(-c3ccc(NC(=O)NCCCS(=O)(=O)O)cc3)sc2c1 [SSA 10]	–	little selectivity for different phospholipid membranes
